US6740760B2, “D-proline derivatives” (Hoffmann-La Roche Inc., priority 1997, dated 2004)

Tests used:
[1] = tested on: B. fragilis; details: disclosed in WO 97/10225; cited from earlier work

melting point [°C]	Structure (SMILES)	antibacterial activity against B. fragilis [1]
210 to 214	O=C(O)[C@H]1CCCN1C(=O)Cc1ccc(CC(=O)N2CCC[C@@H]2C(=O)O)cc1	
	C[C@@H](CS)C(=O)N1CCC[C@@H]1C(=O)O [1-[(R)3-Mercapto-2-methyl-propionyl]-(R)-pyrrolidine-2-carboxylic acid]	antibacterial activity
	C[C@H](CS)C(=O)N1CCC[C@@H]1C(=O)O [1-[(S)3-Mercapto-2-methyl-propionyl]-(R)-pyrrolidine-2-carboxylic acid]	antibacterial activity
